Molecules are shown by their SMILES. A value given as a limit tells only on which side of the number the result lay.

The target of one assay is Glutamate carboxypeptidase 2 (Homo sapiens, UniProt Q04609). In words: Inhibition of Glutamate carboxypeptidase II.
Glutamate carboxypeptidase 2, sequence (Q04609 whole entry): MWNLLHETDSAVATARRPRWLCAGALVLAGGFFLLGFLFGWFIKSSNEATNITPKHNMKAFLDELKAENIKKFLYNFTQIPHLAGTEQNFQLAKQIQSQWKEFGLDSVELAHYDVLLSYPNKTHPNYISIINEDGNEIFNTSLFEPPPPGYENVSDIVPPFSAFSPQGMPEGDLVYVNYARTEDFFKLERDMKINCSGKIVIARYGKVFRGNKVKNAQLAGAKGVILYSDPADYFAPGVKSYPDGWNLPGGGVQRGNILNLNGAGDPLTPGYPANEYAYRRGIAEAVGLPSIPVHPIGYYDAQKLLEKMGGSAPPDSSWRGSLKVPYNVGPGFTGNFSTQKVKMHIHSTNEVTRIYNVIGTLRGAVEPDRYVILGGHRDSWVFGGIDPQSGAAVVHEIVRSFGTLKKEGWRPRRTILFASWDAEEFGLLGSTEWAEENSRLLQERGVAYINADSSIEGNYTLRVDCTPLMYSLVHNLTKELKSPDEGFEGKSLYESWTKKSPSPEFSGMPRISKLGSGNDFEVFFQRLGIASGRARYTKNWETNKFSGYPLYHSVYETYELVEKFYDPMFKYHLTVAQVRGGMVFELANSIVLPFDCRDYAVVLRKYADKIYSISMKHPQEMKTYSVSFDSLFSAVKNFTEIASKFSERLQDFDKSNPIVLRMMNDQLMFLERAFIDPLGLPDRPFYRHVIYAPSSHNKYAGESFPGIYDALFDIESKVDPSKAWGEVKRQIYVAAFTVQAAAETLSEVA
For the compound `CC(=O)N[C@H](CC(=O)O)C(=O)NO`, the IC50 was more than 100000 nM.

In turn, `N[C@H](CC(=O)NO)C(=O)O` had an IC50 of more than 100000 nM.

Turning to `O=C(O)CCC(CCCC(=O)NO)C(=O)O` (stereo not drawn), the IC50 came to 940 nM.

With `O=C(O)CCC(=O)NO`, the IC50 came out at 43000 nM.

With `O=C(O)CCC(CCC(=O)NO)C(=O)O` (stereo not drawn), it took 1200 nM to reach half-maximal inhibition (IC50).

`N[C@@H](CC(=O)NO)C(=O)O`: the IC50 is more than 100000 nM.

In turn, `O=C(O)CCC(CP(=O)(O)Cc1c(F)c(F)c(F)c(F)c1F)C(=O)O` (stereo not drawn) yielded a half-maximal inhibitory concentration (IC50) of 82 nM.

For `O=C(O)CCC(CC(=O)NO)C(=O)O` (stereo not drawn), the 50% inhibitory concentration (IC50) came out at 220 nM.

In turn, `CC(=O)N[C@@H](CC(=O)O)C(=O)NO` gave an IC50 of more than 100000 nM.

`O=C(O)CCC(CC(=O)O)C(=O)O` (stereo not drawn) returned an IC50 of 20000 nM.

Turning to `N[C@@H](CCC(=O)NO)C(=O)O` [GLUTAMINE HYDROXAMATE], the IC50 was more than 100000 nM.

The target in the next assay is Bacterial leucyl aminopeptidase (Vibrio proteolyticus, UniProt Q01693). In words: Inhibition of metalloprotease from family M28, Aeromonas proteolytica aminopeptidase.
Bacterial leucyl aminopeptidase, sequence (Q01693 whole entry): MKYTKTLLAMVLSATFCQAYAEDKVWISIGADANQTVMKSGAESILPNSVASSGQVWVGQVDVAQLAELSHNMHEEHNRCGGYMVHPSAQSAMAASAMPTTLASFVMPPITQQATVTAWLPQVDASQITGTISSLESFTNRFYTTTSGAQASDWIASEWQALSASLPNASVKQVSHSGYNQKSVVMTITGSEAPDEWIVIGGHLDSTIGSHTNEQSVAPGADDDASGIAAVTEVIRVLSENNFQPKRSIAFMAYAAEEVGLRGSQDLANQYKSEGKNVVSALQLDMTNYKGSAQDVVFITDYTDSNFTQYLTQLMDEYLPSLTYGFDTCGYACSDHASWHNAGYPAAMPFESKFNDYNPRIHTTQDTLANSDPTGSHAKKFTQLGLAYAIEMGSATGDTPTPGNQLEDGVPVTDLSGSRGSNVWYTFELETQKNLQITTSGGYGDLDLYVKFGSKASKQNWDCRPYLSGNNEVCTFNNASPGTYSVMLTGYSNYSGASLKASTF
Compound `CC(C)C[C@H](N)C(=O)NO` gave an inhibitory constant (Ki) of 350 nM.

As for `CC(C)C[C@@H](N)C(=O)NO`, the inhibition constant (Ki) amounted to 2 nM.

Source of the values: ChEMBL document CHEMBL1136071, “Synthesis and biological evaluation of hydroxamate-Based inhibitors of glutamate carboxypeptidase II” (Bioorg Med Chem Lett, 2003).
